Laboratory results: US9499466B2, “Diene-based carboxylate anion and salt thereof, and polymerizable or curable composition thereof” (NIPPON SHOKUBAI CO., LTD., priority 2010, dated 2016)

Experiments:
[1] = Solubility test (dissolution method); conditions: for Solubility (dissolution method) Water: mixed at 1%, 3%, 5%, 10%, 20% or more
Source text: The solubility evaluation by the dissolution method requires complicated operations and a large amount of test sample. Therefore, this test is not suitable for screening. However, the solubility of each compound can be more accurately evaluated.

[2] = Adhesion of cured material to PET film (cross-cut method, JIS K 5600-5-6); conditions: UV-cured film on surface-untreated PET film, cross-cut 10×10
Experimental: Each compound shown in Table 11 was formed into a UV-cured film on a PET film in the same manner as in the pencil hardness test, except that the PET film used as a substrate was a surface-untreated polyethylene terephthalate (PET) film (Lumirror L-50T60, produced by Toray Industries, Inc.).
The adhesion of the UV-cured film to the PET film was evaluated based on JIS K 5600-5-6 (cross-cut method). The number of divided segments was 10×10 segments=100 segments. The adhesion was evaluated by the number of the segments which remain without peeling or damage in 100 segments.

[3] = Solubility test (film-forming method); conditions: solvent dropped on film on glass plate; Water
Experimental: Each compound was applied on a glass plate and the glass plate was leaned against the wall. Each solvent shown in Table 5 was dropped (5 to 6 drops) on the glass plate with a pasteur pipette. The glass plate was visually observed after the dropped solvent was dried, the surface was optionally rubbed with a spatula, and the solubility (film-forming method) was evaluated according to the criteria shown in Table 4.

SMILES | Solubility (dissolution method) Acetone [1] | Solubility (dissolution method) Acetonitrile [1] | Solubility (dissolution method) Ethyl acetate [1] | Solubility (dissolution method) Methanol [1] | Solubility (dissolution method) THF [1] | Solubility (dissolution method) Toluene [1] | Solubility (dissolution method) Water [1] | Adhesion (segments remaining without peeling or damage in 100 segments) [2] | Solubility (film-forming method) Water [3]
C=CCOCC(=C)C(=O)OCCOCCOC(=O)C(=C)COCC=C [DEG-AMA, diethylene glycol di(α-allyloxymethyl acrylate), reference compound] | ◯◯ (Become uniform and transparent at a compound concentration of 20% or more) | ◯◯ (Become uniform and transparent at a compound concentration of 20% or more) | ◯◯ (Become uniform and transparent at a compound concentration of 20% or more) | ◯◯ (Become uniform and transparent at a compound concentration of 20% or more) | ◯◯ (Become uniform and transparent at a compound concentration of 20% or more) | ◯◯ (Become uniform and transparent at a compound concentration of 20% or more) | X (Not become uniform and transparent even at a compound concentration of 1%) | 85/100 | 
C=CC(=O)OCCOCCOC(=O)C=C [DEGDA, reference compound] | ◯◯ (Become uniform and transparent at a compound concentration of 20% or more) | ◯◯ (Become uniform and transparent at a compound concentration of 20% or more) | ◯◯ (Become uniform and transparent at a compound concentration of 20% or more) | ◯◯ (Become uniform and transparent at a compound concentration of 20% or more) | ◯◯ (Become uniform and transparent at a compound concentration of 20% or more) | ◯◯ (Become uniform and transparent at a compound concentration of 20% or more) | X-Δ (Become uniform and transparent at a compound concentration of 1%) | 32/100 | 
C=CCOCC(=C)C(=O)OCC(C)(C)COC(=O)C(=C)COCC=C [NPG-AMA, neopentyl glycol di(α-allyloxymethyl acrylate), reference compound] | ◯◯ (Become uniform and transparent at a compound concentration of 20% or more) | ◯◯ (Become uniform and transparent at a compound concentration of 20% or more) | ◯◯ (Become uniform and transparent at a compound concentration of 20% or more) | ◯◯ (Become uniform and transparent at a compound concentration of 20% or more) | ◯◯ (Become uniform and transparent at a compound concentration of 20% or more) | ◯◯ (Become uniform and transparent at a compound concentration of 20% or more) | X (Not become uniform and transparent even at a compound concentration of 1%) | 72/100 | 
C=CC(=O)OCC(C)(C)COC(=O)C=C [NPGDA, reference compound] | ◯◯ (Become uniform and transparent at a compound concentration of 20% or more) | ◯◯ (Become uniform and transparent at a compound concentration of 20% or more) | ◯◯ (Become uniform and transparent at a compound concentration of 20% or more) | ◯◯ (Become uniform and transparent at a compound concentration of 20% or more) | ◯◯ (Become uniform and transparent at a compound concentration of 20% or more) | ◯◯ (Become uniform and transparent at a compound concentration of 20% or more) | X (Not become uniform and transparent even at a compound concentration of 1%) | 49/100 | 
C=CC(=O)OCC(CC)(COC(=O)C=C)COC(=O)C=C [TMPTA, reference compound] | ◯◯ (Become uniform and transparent at a compound concentration of 20% or more) | ◯◯ (Become uniform and transparent at a compound concentration of 20% or more) | ◯◯ (Become uniform and transparent at a compound concentration of 20% or more) | ◯◯ (Become uniform and transparent at a compound concentration of 20% or more) | ◯◯ (Become uniform and transparent at a compound concentration of 20% or more) | ◯◯ (Become uniform and transparent at a compound concentration of 20% or more) | X (Not become uniform and transparent even at a compound concentration of 1%) | 71/100 | 
C=CCOCC(=C)C(=O)[O-].C=CCOCC(=C)C(=O)[O-].[Zn+2] [Zn(AMA)2] |  |  |  |  |  |  |  | 100/100 | X-Δ
C=CCOCC(=C)C(=O)[O-].C=CCOCC(=C)C(=O)[O-].[O]=[Zr+2] [ZrO(AMA)2] | ◯◯ (Become uniform and transparent at a compound concentration of 20% or more) | ◯◯ (Become uniform and transparent at a compound concentration of 20% or more) | ◯◯ (Become uniform and transparent at a compound concentration of 20% or more) | ◯◯ (Become uniform and transparent at a compound concentration of 20% or more) | ◯◯ (Become uniform and transparent at a compound concentration of 20% or more) | ◯◯ (Become uniform and transparent at a compound concentration of 20% or more) | X (Not become uniform and transparent even at a compound concentration of 1%) | 100/100 | 
